From patent publication US9902736B2, “1-oxo/acylation-14-acylated oridonin derivative, preparation method therefor and application thereof” (HANGZHOU BENSHENG PHARMACEUTICAL CO., LTD., priority 2012, dated 2018)
Values after ≈ are worked out from the molar mass of the structure shown.

Columns and labels:
RPMI 8226 = test: Multiple myeloma cell growth inhibition, MTT, 72 h; assay type: cell-based; conditions: Homo sapiens
Procedure, shortened: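 Growth inhibition by MTT after 72 h drug exposure (37 °C, 5% CO2) over a concentration range of oridonin derivatives. RPMI 8226 cells plated at 6000 per well and dosed the following day.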

U87-MG = test: Solid tumor cell growth inhibition, MTT, 72 h; assay type: cell-based; conditions: Homo sapiens, U-87 MG
Procedure, shortened: (§1)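 6000 cells/well; DMEM high glucose + 10% FBS; 24 h pre-incubation, 37° C, 5% CO2; test compounds at graded concentrations, mixed; viable-cell readout at end of exposure.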

Becap-37 = test: Solid tumor cell growth inhibition, MTT, 72 h; assay type: cell-based; conditions: Homo sapiens
Procedure, shortened: as §1

MG-63 = test: Solid tumor cell growth inhibition, MTT, 72 h; assay type: cell-based; conditions: Homo sapiens
Procedure, shortened: as §1

SK-OV-3 = test: Solid tumor cell growth inhibition, MTT, 72 h; assay type: cell-based; conditions: Homo sapiens, SK-OV-3, 72 h, MTT; for IC50: read-out: IC50 SK-OV-3; for IC90: read-out: IC90 SK-OV-3
Procedure, shortened: as §1

RKO = test: Solid tumor cell growth inhibition, MTT, 72 h; assay type: cell-based; conditions: Homo sapiens
Procedure, shortened: as §1

A549 = test: Solid tumor cell growth inhibition, MTT, 72 h; assay type: cell-based; conditions: Homo sapiens
Procedure, shortened: as §1

PANC-1 = test: Solid tumor cell growth inhibition, MTT, 72 h; assay type: cell-based; conditions: Homo sapiens
Procedure, shortened: as §1

CaEs-17 = test: Solid tumor cell growth inhibition, MTT, 72 h; assay type: cell-based; conditions: Homo sapiens, CaEs17
Procedure, shortened: as §1

Hep G2 = test: Solid tumor cell growth inhibition, MTT, 72 h; assay type: cell-based; conditions: Homo sapiens, HepG2
Procedure, shortened: as §1

PC-3 = test: Solid tumor cell growth inhibition, MTT, 72 h; assay type: cell-based; conditions: Homo sapiens
Procedure, shortened: as §1

H9 = test: Leukemia cell growth inhibition, MTT, 72 h; assay type: cell-based, human; conditions: Homo sapiens, H9; 72 h, MTT
Procedure, shortened: (§2)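 Seed 6000 cells/well; next day add cpds at graded conc.; 37° C, 5% CO2, 72 h; viable cells by MTT. K562/ADR = drug-resistant CML, H9/Jurkat = ALL, Kasumi-1 = AML-M2.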

NB4 = test: Leukemia cell growth inhibition, MTT, 72 h; assay type: cell-based, human; conditions: Homo sapiens, NB-4; 72 h, MTT
Procedure, shortened: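 Viability determined by MTT following a 72-hour, 37° C, 5% CO2 incubation with test compounds at different concentrations, added the day after seeding 6000 cells per well.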

Jurkat = test: Leukemia cell growth inhibition, MTT, 72 h; assay type: cell-based, human; conditions: for IC50 / IC90: Homo sapiens, Jurkat, 72 h, MTT
Procedure, shortened: as §2

Kasumi-1 = test: Leukemia cell growth inhibition, MTT, 72 h; assay type: cell-based; conditions: Homo sapiens
Procedure, shortened: as §2

K562/ADR = test: Leukemia cell growth inhibition, MTT, 72 h; assay type: cell-based; conditions: Homo sapiens
Procedure, shortened: as §2

Hep-2 = test: Solid tumor cell growth inhibition, MTT, 72 h; assay type: cell-based, human; conditions: Homo sapiens, HEp-2; 72 h, MTT
Procedure, shortened: as §1

Hela = test: Solid tumor cell growth inhibition, MTT, 72 h; assay type: cell-based, human; conditions: Homo sapiens, HeLa; 72 h, MTT
Procedure, shortened: as §1

CNE = test: Solid tumor cell growth inhibition, MTT, 72 h; assay type: cell-based, human; conditions: Homo sapiens, CNE; 72 h, MTT
Procedure, shortened: as §1

MGC-803 = test: Solid tumor cell growth inhibition, MTT, 72 h; assay type: cell-based, human; conditions: Homo sapiens, MGC-803; 72 h, MTT
Procedure, shortened: as §1

## C=C1C(=O)[C@]23[C@H](OC(=O)c4ccc(Cl)cc4)[C@H]1CC[C@H]2[C@@]12CO[C@@]3(O)[C@@H](O)[C@@H]1C(C)(C)CCC2=O [BS-OR-010]
RPMI 8226
  IC50: 0.28 µg/mL (≈ 0.559 µM)
  IC90: 1.78 µg/mL (≈ 3.55 µM)
U87-MG
  IC50: 0.94 µg/mL (≈ 1.88 µM)
  IC90: 2.78 µg/mL (≈ 5.55 µM)
Becap-37
  IC50: 1.03 µg/mL (≈ 2.06 µM)
  IC90: 3.72 µg/mL (≈ 7.43 µM)
MG-63
  IC50: 0.46 µg/mL (≈ 0.918 µM)
  IC90: 0.95 µg/mL (≈ 1.9 µM)
SK-OV-3
  IC50: 1.66 µg/mL (≈ 3.31 µM)
  IC90: 4.77 µg/mL (≈ 9.52 µM)
RKO
  IC50: 0.46 µg/mL (≈ 0.918 µM)
  IC90: 0.95 µg/mL (≈ 1.9 µM)
A549
  IC50: 2.83 µg/mL (≈ 5.65 µM)
  IC90: 7.29 µg/mL (≈ 14.6 µM)
PANC-1
  IC50: 1.86 µg/mL (≈ 3.71 µM)
  IC90: 10.7 µg/mL (≈ 21.3 µM)
CaEs-17
  IC50: 1.1 µg/mL (≈ 2.2 µM)
  IC90: 5.51 µg/mL (≈ 11 µM)
Hep G2
  IC50: 0.99 µg/mL (≈ 1.98 µM)
  IC90: 11.7 µg/mL (≈ 23.4 µM)
PC-3
  IC50: 1.66 µg/mL (≈ 3.31 µM)
  IC90: 4.77 µg/mL (≈ 9.52 µM)
H9
  IC50: 0.38 µg/mL (≈ 0.759 µM)
  IC90: 0.96 µg/mL (≈ 1.92 µM)
NB4
  IC50: 0.15 µg/mL (≈ 0.299 µM)
  IC90: 0.95 µg/mL (≈ 1.9 µM)
Jurkat
  IC50: 0.48 µg/mL (≈ 0.958 µM)
  IC90: 6.06 µg/mL (≈ 12.1 µM)
Jurkat; as compared with oridonin
  anti-Jurkat cell line activity increased: ~4 fold
Kasumi-1
  IC50: 0.57 µg/mL (≈ 1.14 µM)
  IC90: 1.76 µg/mL (≈ 3.51 µM)
K562/ADR
  IC50: 0.44 µg/mL (≈ 0.878 µM)
  IC90: 1.98 µg/mL (≈ 3.95 µM)
Hep-2
  IC50: 1.8 µg/mL (≈ 3.59 µM)
  IC90: 9.11 µg/mL (≈ 18.2 µM)
Hela
  IC50: 1.49 µg/mL (≈ 2.97 µM)
  IC90: 5.31 µg/mL (≈ 10.6 µM)
CNE
  IC50: 1.39 µg/mL (≈ 2.77 µM)
  IC90: 5.94 µg/mL (≈ 11.9 µM)
MGC-803
  IC50: 0.68 µg/mL (≈ 1.36 µM)
  IC90: 9.04 µg/mL (≈ 18 µM)

## C=C1C(=O)[C@]23[C@H](OC(=O)C4CCN(S(=O)(=O)c5ccccc5[N+](=O)[O-])CC4)[C@H]1CC[C@H]2[C@@]12CO[C@@]3(O)[C@@H](O)[C@@H]1C(C)(C)CCC2=O [BS-OR-034]
RPMI 8226
  IC50: 1.48 µg/mL (≈ 2.25 µM)
  IC90: 3.83 µg/mL (≈ 5.81 µM)
U87-MG
  IC50: 2.16 µg/mL (≈ 3.28 µM)
  IC90: 6.75 µg/mL (≈ 10.2 µM)
Becap-37
  IC50: 3.24 µg/mL (≈ 4.92 µM)
  IC90: 10.1 µg/mL (≈ 15.4 µM)
MG-63
  IC50: 1.28 µg/mL (≈ 1.94 µM)
  IC90: 3.22 µg/mL (≈ 4.89 µM)
SK-OV-3
  IC50: 3.88 µg/mL (≈ 5.89 µM)
  IC90: 9.45 µg/mL (≈ 14.3 µM)
RKO
  IC50: 1.21 µg/mL (≈ 1.84 µM)
  IC90: 1.97 µg/mL (≈ 2.99 µM)
A549
  IC50: 6.43 µg/mL (≈ 9.76 µM)
  IC90: 11.9 µg/mL (≈ 18.1 µM)
PANC-1
  IC50: 4.99 µg/mL (≈ 7.58 µM)
  IC90: 11.9 µg/mL (≈ 18.1 µM)
CaEs-17
  IC50: 3.48 µg/mL (≈ 5.28 µM)
  IC90: 11 µg/mL (≈ 16.7 µM)
Hep G2
  IC50: 3.81 µg/mL (≈ 5.78 µM)
  IC90: > 16 µg/mL
PC-3
  IC50: 3.88 µg/mL (≈ 5.89 µM)
  IC90: 9.45 µg/mL (≈ 14.3 µM)
H9
  IC50: 0.78 µg/mL (≈ 1.18 µM)
  IC90: 1.73 µg/mL (≈ 2.63 µM)
NB4
  IC50: 0.5 µg/mL (≈ 0.759 µM)
  IC90: 1.94 µg/mL (≈ 2.95 µM)
Jurkat
  IC50: 1.32 µg/mL (≈ 2 µM)
  IC90: 5.36 µg/mL (≈ 8.14 µM)
Kasumi-1
  IC50: 1.58 µg/mL (≈ 2.4 µM)
  IC90: 3.46 µg/mL (≈ 5.25 µM)
K562/ADR
  IC50: 1.52 µg/mL (≈ 2.31 µM)
  IC90: 4.77 µg/mL (≈ 7.24 µM)
Hep-2
  IC50: 3.97 µg/mL (≈ 6.03 µM)
  IC90: 13.3 µg/mL (≈ 20.3 µM)
Hela
  IC50: 2.98 µg/mL (≈ 4.52 µM)
  IC90: 7.76 µg/mL (≈ 11.8 µM)
CNE
  IC50: 3.73 µg/mL (≈ 5.66 µM)
  IC90: 10.2 µg/mL (≈ 15.6 µM)
MGC-803
  IC50: 2.89 µg/mL (≈ 4.39 µM)
  IC90: 8.83 µg/mL (≈ 13.4 µM)
